# According to patent US20260251625A1, “METHOD FOR DETERMINING THE DEGREE OF OXIDATIVE DEGRADATION OF POLYSORBATE 20 IN AQUEOUS FORMULATIONS” (Boehringer Ingelheim International GmbH, priority 2021, published 2026):
# Assay: AAPH-induced oxidative stress of aqueous polysorbate 20 solution, PEG-6-laurate oxidation marker by LC-MS P6L
# Assay type: physicochemical
# Conditions: 1.5 mM AAPH
# Protocol: Specifically, oxidative stress is applied to the aqueous polysorbate 20 solution using 1.5 mM 2,2′-azobis-2-methyl-propanimidamide, dihydrochloride (AAPH). The details of the sample preparation are explained in the experimental section under chapter “1.1 Materials”, point “c) Sample preparation of artificially stressed polysorbate 20”.
# 1.5 mM 2,2′-azobis-2-methyl-propanimidamide, dihydrochloride (AAPH) was added to a 0.040 mg/ml aqueous polysorbate 20 solution. The polysorbate 20 solution was stressed for 40 h at 50° C.
# 1.5 mM 2,2′-azobis-2-methyl-propanimidamide, dihydrochloride (AAPH) was added to a 0.040 mg/ml aqueous polysorbate 20 solution. The polysorbate 20 solution was stressed for 35 h at 50° C. After 0, 1, 3, 8, 12, 24 and 35 h samples were taken from the solution and immediately frozen at −20° C. in order to stop the degradation at each time point. […]
# The separated species were then ionized with heated electrospray ionization (HESI) source (Ion Max Ion source with HESI probe, Thermo Fisher Scientific). […] Ions generated were detected in the mass spectrometer (LTQ, Thermo Fisher Scientific). […] PEG-6-laurate was evaluated by generating extracted ion chromatograms (EIC's) out of the full scan data to get peak areas of selected compounds using LCquan™ (Software for quantitative analysis of liquid chromatography).
substance,measurement,setting,value
polyethylene glycol-6-laurate,"increase of peak eluting at about 18.4 min, AAPH-stressed vs unstressed sample","m/z about 227 amu, 40 h at 50° C.",approximately 3.4 fold
same,relative peak area of polyethylene glycol-6-laurate over stress time,"reference T0, 50° C., 0-35 h",increase up to the sampling time point T4 (12 h)
